Data reported in patent US4175130A, “Oxazole- and thiazole-alkanoic acid compounds” (Yoshitomi Pharmaceutical Industries, Ltd., priority 1977, dated 1979).
Blank lines part the entries; values can stand above or below the molecule they belong to.

Experiments:
[1] = tested on: Cholesterol and triglyceride in the serum; assay: Hypolipidemic action: male rats with normolipidemia (serum cholesterol and triglyceride, oral, 5 days); type: in vivo; details: Wistar rats, 100 mg/kg/day oral, control = 100%, * p<0.05 (all values starred)
Protocol: (1) Male rats with normolipidemia:
Male Wistar rats (170-250 g) were used. Each group was composed of 6 animals. The test compound was orally given by a gastric tube for 5 days. Cholesterol and triglyceride in the serum were determined by the standard methods using antoanalyzer (Technicon Inc.). The levels in the control group were considered as 100% and the reduction rate (%) in the test group was calculated.

[2] = Liver weight / hepatomegaly; type: in vivo, male Wistar rats; details: for Increase (%) Liver Weight: Wistar rats, 100 mg/kg/day oral, 5 days, * p<0.05 (only clofibrate starred)
serum cholesterol = assay: Hypolipidemic action: male mice with hyperlipidemia (high cholesterol diet); type: in vivo, male dd-strain mice; details: dd mice, 100 mg/kg/day oral, 5 days, * p<0.05 (A, B, C, D starred; clofibrate not)
Protocol: (2) Male mice with hyperlipidemia:
Male dd-strain mice (20-25 g) were used. Each group was composed of 10 animals. Mice were fed a high cholesterol diet (1% cholesterol, 0.2% sodium cholate, 5% olive oil and 93.8% commercial diet) for 5 days. The test compound was orally administered to the animals once a day throughout the experimental period. The serum cholesterol was determined by the procedure described in Experiment (1).

Acute Toxicity (oral) = details: mouse, in vivo, mice, p.o., mortality within 7 days
Protocol: Male dd-strain mice (20-25 g) were used. Each group was composed of 10 animals. The test compound was orally administered to the animals. The LD50 (mg/kg) was calculated from the mortality within 7 days after administration of the test compound.

[3] = Serum Levels in Rhesus Monkey; type: in vivo, rhesus monkeys; details: 10 mg/kg oral; for Cmax: read-out: Peak level (serum)
Protocol: Serum Levels in Rhesus Monkey
The test compound was orally administered to rhesus monkeys at the dose of 10 mg/kg. Blood was collected at 0, 2, 4, 6, 8, 24, 30 and 48 hours after the administration of the test compound. After centrifugation, serum was stored at -20° C. until taken for analysis. Serum drug was extracted with ethyl acetate and fluorometrically determined.
(Wavelengths for fluorometric determination:
excitation: 294 nm, emission: 365 nm with compound A;
excitation: 305 nm, emission: 370 nm with compound D)

- Increase (%) Liver Weight [2]: -6%
Structure (SMILES): O.O=C(O)Cc1nc(-c2ccc(Cl)cc2)oc1Oc1ccccc1 [B, 2-p-Chlorophenyl-5-phenoxy-4-oxazoleacetic acid monohydrate]
- Decrease (%) Cholesterol [1]: 37%
- Decrease (%) Triglyceride [1]: 33%
- Decrease (%) of Serum Cholesterol (serum cholesterol): 38%

- Increase (%) Liver Weight [2]: 15%
Structure (SMILES): CCOC(=O)Cc1nc(-c2ccc(Cl)cc2)sc1Sc1ccccc1 [C, Ethyl 2-p-chlorophenyl-5-phenylthio-4-thiazoleacetate]
- Decrease (%) Cholesterol [1]: 40%
- Decrease (%) Triglyceride [1]: 29%
- Decrease (%) of Serum Cholesterol (serum cholesterol): 34%

Structure (SMILES): CCOC(=O)C(C)(C)Oc1ccc(Cl)cc1 [Clofibrate, reference compound]
- Decrease (%) Cholesterol [1]: 32%
- Decrease (%) Triglyceride [1]: 34%
- liver enlargement ([2]; 100 mg/kg): significant liver enlargement
- Increase (%) Liver Weight [2]: 17%
- Decrease (%) of Serum Cholesterol (serum cholesterol): 16%
- LD50 at 168 h (Acute Toxicity (oral)): 1500 mg/kg

Structure (SMILES): CCOC(=O)Cc1nc(-c2ccc(Cl)cc2)oc1Oc1ccc(Cl)cc1 [Compound A, Ethyl 2-p-chlorophenyl-5-p-chlorophenoxy-4-oxazoleacetate]
- Decrease (%) Cholesterol [1]: 40%
- Decrease (%) Triglyceride [1]: 33%
- hepatomegaly ([2]; 500 mg/kg): no hepatomegaly
- Increase (%) Liver Weight [2]: 5%
- Decrease (%) of Serum Cholesterol (serum cholesterol): 37%
- LD50 at 168 h (Acute Toxicity (oral)): > 6000 mg/kg
- half-life [3]: 1800 min
- Cmax [3]: 30000 ng/mL

Structure (SMILES): CCOC(=O)Cc1nc(-c2ccc(Cl)cc2)oc1OCC [D, Ethyl 2-p-chlorophenyl-5-ethoxy-4-oxazoleacetate, reference compound]
- Decrease (%) Cholesterol [1]: 32%
- Decrease (%) Triglyceride [1]: 33%
- Increase (%) Liver Weight [2]: 5%
- Decrease (%) of Serum Cholesterol (serum cholesterol): 37%
- LD50 at 168 h (Acute Toxicity (oral)): 3700 mg/kg
- half-life [3]: 180 min
- Cmax [3]: 15000 ng/mL
